# Laboratory results from patent US9701660B2, “2,6-diaminopyridine compounds suitable for treating diseases associated with amyloid or amyloid-like proteins or for treating or preventing ocular diseases or conditions associated with a pathological abnormality/change in the tissue of the visual system” (AC Immune S.A., priority 2009, dated 2017).
# Where “and” joins values, the source holds several entries; their conditions need not be identical. Equal entries are not always repeated.
# Tests used:
# [1] = biological target: T1, amyloid beta (Ab) 1-42 peptide (Homo sapiens, UniProt P05067); assay: Inhibition of amyloid beta (Ab) 1-42 peptide aggregation (thioflavin T spectrofluorescence assay); type: biochemical; details: for ThT assay at 330 mM % inhib.: small molecule to Ab1-42 10:1, 24 hrs at 37° C.; for biological activity (ThT assay) in words, compared to compound 1 / compounds according to the invention: comparison; for inhibition at 330 µM: mean of the two ThT assays at 330 µM, read-out: Mean % inhib.
# T1 construct: amyloid beta (Ab) 1-42 peptide; purchased Bachem
# Procedure: A number of small molecules were tested for their capacity to inhibit the aggregation of amyloid beta (Ab) 1-42 peptide using a thioflavin T spectrofluorescence assay.
# Ab1-42 lyophilized powder (Bachem) was reconstituted in hexafluoroisopropanol (HFIP) to 1 mM. The peptide solution was sonicated for 15 min at room temperature, agitated overnight, and aliquots were placed in non-siliconized microcentrifuge tubes. The HFIP was then evaporated under a stream of argon. The resulting peptide film was dried under vacuum for 10 min, tightly sealed and stored at −80° C. until used.
# Ab1-42 peptide film was dissolved in DMSO to reach 400 μM. Assay solution in PBS buffer was prepared in non-siliconized incubation tubes to reach the following concentrations: […] Ab1-42, 10 μM thioflavin T (ThT), and 12.8% DMSO. Therefore, the final molar ratio of small molecule to Ab1-42 was 10:1. A positive control without a small molecule was prepared to measure maximum RFU. A negative control without Ab1-42 was prepared for each small molecule. 3-Aminopyrazole trimer (Trimer) was tested in all assays to ascertain reproducibility between independent experiments. The solutions were incubated for 24 hrs at 37° C., and the spectrofluorescence (relative fluorescence units; RFU) read in six replicates in black 384-well assay plates (Perkin-Elmer) on a Perkin-Elmer FluoroCount spectrofluorometer. Inhibition of aggregation is expressed as mean % inhibition or ±1 standard deviation (SD) according to the following equation: % inhibition=(RFU of positive control−RFU of negative control)−(RFU of sample with Aβ-42−RFU of sample without Aβ1-42)×100 • (RFU of positive control−RFU of negative control)
# Cut-off criteria for selection of functional molecules were defined at 50% inhibition capacity. Molecules showing an inhibition capacity over 70% were considered as very strong candidates.
# [2] = Aqueous solubility in PBS (HPLC); type: physicochemical; details: for solubility at 24 h: PBS 1x, 24 hours at room temperature; for solubility in words, compared to compound 1: comparison
# Procedure: Method for measuring the solubility:
# • Plate shaker, Centrifuge (Eppendorf, 8 cm radius), HPLC (Dionex P580), Column: Agilent Zorbax Eclipse XDB-C18 rapid resolution (4.6×50 mm, […], Agilent), Uncoloured microtubes 1.5 mL (Eppendorf, 1.5 mL), Micropipettes […], Micropipettes […], Dulbecco's phosphate buffer, DMSO, ammonium formate, formic acid 98-100%, UP-H2O, acetonitrile HPLC grade, methanol GR analysis, PVDF membrane filter. 2. Method 2.1 Preparation of PBS 5× (Stored at 4° C.) and PBS1× for Analysis • PBS 5× • Dissolved the full content of PBS salt (D-5652-10L) in 2 L of UP-H2O. • PBS1× • Before analysis, dilute 5 fold the PBS 5× in order to prepare 30 mL of PBS1× and filter the solution using a syringe and any hydrophilic membrane e.g. PVDF membrane. 2.2 Preparation of HPLC Solvent (Stored at RT) • Solvent A: 13.3 mM ammonium formate/6.5 mM formic acid/UP-water
# Dissolve 820±1 mg of ammonium formate and 245 μL of formic acid in 1000 mL of UP-H2O. • Solvent B: 6.0 mM ammonium formate/2.9 mM formic acid/90% acetonitrile/10% UP-water • Dissolve 378±1 mg of ammonium formate and 110 μL of formic acid in 900 mL acetonitrile and 100 mL of UP-H2O. 2.3 Preparation of the Stock Solution of the Compound • Dissolve compound in DMSO at a concentration of 25 mM (minimum […]). 2.4 Preparation of Standard Curve • Prepare 15 mL of methanol/H2O (6/4). • Prepare 5 standard calibrators: 250 μM, 200 μM, 50 μM, 12.5 μM and 3.13 μM in methanol/H2O (6/4). • Make preparations of each standard concentration in 1.5 microtubes.
# • Transfer directly 250-300 μL from each microtube to an HPLC vial. • Run HPLC (from microtubes #6 to #1), using the following conditions:
# C18 column, 0.7 mL/min, 20° C., UV detection at 254 nm, volume injection: 20 μL and one of the following gradients: […]
# 2.5. Preparation of the Sample for Aqueous Solubility • Prepare Samples of the Compound in Triplicates
# • Shake it gently (350 rpm) for 24 hours at room temperature. • After the incubation time, centrifuge at 2500 g (5500 rpm) for 30 min. • Sample 200 μL of supernatant for HPLC analysis using the same conditions described in 2.4. 2.6. Data Treatment • Integrate area of each standard point peak at 254 nm. • Determine the standard curve for the compound by plotting the area vs. the theoretical concentration. Establish the standard curve equation based on a linear regression (with an intercept at 0, R^2≧0.90). y(area)=slope×x(concentration) • Calculate the average area of each triplicate prepared in aqueous phase.
# The concentration of the compound in the supernatant is determined by the following formula: […]
# The solubility of the compound is determined by the following formula: […]
# [3] = system: retinal ganglion cells (RGCs); assay: Rat model of chronic ocular hypertension (OHT)/glaucoma; type: in vivo, Dark Agouti rats; details: for number of viable RGCs: 3 weeks after intra-vitreal injection in the OHT eye, in comparison to the control group, p<0.001; for reduction of intraocular pressure: at 3 weeks, Tonopen
# Procedure: A rat model of chronic ocular hypertension (OHT)/glaucoma was created by injecting hypertonic saline into the episcleral veins of one eye of Dark Agouti rats. 18 rats received an intra-vitreal injection containing a volume of 5 μL of compound 1 (ACI-260) at a concentration of 74 mg/L in the OHT eye. 18 rats served as negative control and received 5 μl of saline and 18 rats served as positive control and received 6 μL Congo Red (1.46 mg/mL). 6 animals/timepoint were euthanized at 3, 8 and 16 weeks after treatment.
# Intraocular pressure (IOP) was measured using a Tonopen once every 4 weeks post dosing and prior to sacrifice (within 3 days). 5 to 7 days prior to sacrifice, animals were injected intra-cerebrally with 5 μL of 4% FluoroGold to label the retinal ganglion cells (RGCs). In order to quantify viable RGCs, images were processed using a specific system of image analysis software and viable RGCs were expressed per square millimeter.
# [4] = biological target: T1, amyloid beta (Ab) 1-42 peptide; assay: Inhibition of amyloid beta (Ab) 1-42 peptide aggregation (thioflavin T spectrofluorescence assay); type: biochemical; details: mean of 2 experiments; Ab1-42 aggregation, 24 hrs at 37° C.; read-out: IC50 ThT-assay
# [5] = PBS 1x (Dulbecco's phosphate buffer), aqueous buffer, kinetic from dmso stock, table with IC50
# [6] = PBS 1x (Dulbecco's phosphate buffer), aqueous buffer, kinetic from dmso stock, table with % inhib.
# T1 sequence (P05067 672-713 limits assumed): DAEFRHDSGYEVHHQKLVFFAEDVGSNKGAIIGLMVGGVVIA
Compound,ThT assay at 330 mM % inhib. ([1]; experiment 1),ThT assay at 330 mM % inhib. ([1]; experiment 2),IC50 [4],"biological activity (ThT assay) in words, compared to compound 1 / compounds according to the invention [1]","solubility at 24 h [2, 6]","solubility in words, compared to compound 1 [2]",other results
CNc1cccc(NCCc2cccc(NCc3ccccn3)n2)n1 [Compound 2],,,12.9 µM,,,,
CNc1cccc(CCNc2cccc(NCCc3ccccn3)n2)n1 [Compound 3],,,35.3 µM,,,,"solubility at 24 h [2, 5]: 206 µM and 71 µg/mL"
CNc1cccc(CCNc2cccc(CCNc3ccccn3)n2)n1 [Compound 5],,,140 µM,significantly decreased,,,
"CCCNc1ccc(NCc2ccc(NCc3ccc(NCCC)nc3)nc2)nc1 [Compound 8, reference compound]",73.3%,80.7%,,,1 µM and 0.4 µg/mL,significantly worse,
FC(F)(CNc1cccc(NCC(F)(F)c2ccc3c(n2)NCCC3)n1)c1ccccn1 [Compound 12],56.4%,63.7%,,worse,21.5 µM and 9.5 µg/mL,worse,
CNc1cccc(CCNc2cccc(CCN(c3ccccn3)c3ccccn3)n2)n1 [Compound 13],,,298 µM,,,,
"Nc1c(/N=N/c2ccc(-c3ccc(/N=N/c4cc(S(=O)(=O)O)c5ccccc5c4N)cc3)cc2)cc(S(=O)(=O)O)c2ccccc12 [Congo Red, reference compound]",,,,,,,number of viable RGCs [3]: significantly increased; reduction of intraocular pressure [3]: not observed

# Further lines, with some results ahead:
ThT assay at 330 mM % inhib. ([1]; experiment 1),ThT assay at 330 mM % inhib. ([1]; experiment 2),IC50 [4],"biological activity (ThT assay) in words, compared to compound 1 / compounds according to the invention [1]","solubility at 24 h [2, 6]","solubility in words, compared to compound 1 [2]",Compound,other results
88.8%,79.6%,25.5 µM,,,,CNc1cccc(NCCc2cccc(NCCc3ccccn3)n2)n1 [Compound 1],"solubility at 24 h [2, 5]: 857 µM and 298 µg/mL; number of viable RGCs [3]: significantly increased; reduction of intraocular pressure [3]: not observed"
,,16.5 µM,,,,CNc1cccc(NCCCc2cccc(NCCCc3ccccn3)n2)n1 [Compound 4],"solubility at 24 h [2, 5]: 38 µg/mL; solubility at 24 h ([2]; table with IC50): 103 µM"
68.4%,59.0%,,significantly reduced activity,,,CNc1cccc(NCCc2ccccn2)n1 [Compound 6],inhibition at 330 µM [1]: 63.7%
77.6%,70.3%,,significantly reduced activity,50 µg/mL,,CNc1cccc(CCNc2cccc(NC)n2)n1 [Compound 7],inhibition at 330 µM [1]: 74%; solubility at 24 h ([2]; table with % inhib.): 195 µM
91.8%,93.4%,,comparable activity to compound 1,154 µM and 57 µg/mL,worse,c1ccc(CCNc2cccc(NCCc3ccc4c(n3)NCCC4)n2)nc1 [Compound 9],
89.6%,77.6%,,comparable activity to compound 1,,worse,FC(F)(CNc1cccc(NCCc2ccccn2)n1)c1ccc2c(n1)NCCC2 [Compound 10],
95.3%,94.4%,,comparable activity to compound 1,119 µM and 48 µg/mL,worse,FC(F)(CNc1cccc(NCCc2ccc3c(n2)NCCC3)n1)c1ccccn1 [Compound 11],
